Read-outs that look alike come from different tables or passages of the source.
Experiments:
plasma prothrombin = experiment: Effect of dietary oils on plasma prothrombin concentration (rat feeding study); type: in vivo, Wistar rats; settings: animal data extrapolated to adult reference person of about 60 kg
Υ-glutamylcarboxylase [1] = molecular target: T1, Υ-glutamylcarboxylase (Rattus norvegicus, UniProt O88496); experiment: Inhibition of carboxylase activity in salt-washed liver microsomes, rat system; type: biochemical, rats of the Lewis strain; settings: cofactor KH2; mean of triplicate experiments with S.E.M.; read-out: I-50 (µM) in rat system
T1 sequence (O88496 1-758): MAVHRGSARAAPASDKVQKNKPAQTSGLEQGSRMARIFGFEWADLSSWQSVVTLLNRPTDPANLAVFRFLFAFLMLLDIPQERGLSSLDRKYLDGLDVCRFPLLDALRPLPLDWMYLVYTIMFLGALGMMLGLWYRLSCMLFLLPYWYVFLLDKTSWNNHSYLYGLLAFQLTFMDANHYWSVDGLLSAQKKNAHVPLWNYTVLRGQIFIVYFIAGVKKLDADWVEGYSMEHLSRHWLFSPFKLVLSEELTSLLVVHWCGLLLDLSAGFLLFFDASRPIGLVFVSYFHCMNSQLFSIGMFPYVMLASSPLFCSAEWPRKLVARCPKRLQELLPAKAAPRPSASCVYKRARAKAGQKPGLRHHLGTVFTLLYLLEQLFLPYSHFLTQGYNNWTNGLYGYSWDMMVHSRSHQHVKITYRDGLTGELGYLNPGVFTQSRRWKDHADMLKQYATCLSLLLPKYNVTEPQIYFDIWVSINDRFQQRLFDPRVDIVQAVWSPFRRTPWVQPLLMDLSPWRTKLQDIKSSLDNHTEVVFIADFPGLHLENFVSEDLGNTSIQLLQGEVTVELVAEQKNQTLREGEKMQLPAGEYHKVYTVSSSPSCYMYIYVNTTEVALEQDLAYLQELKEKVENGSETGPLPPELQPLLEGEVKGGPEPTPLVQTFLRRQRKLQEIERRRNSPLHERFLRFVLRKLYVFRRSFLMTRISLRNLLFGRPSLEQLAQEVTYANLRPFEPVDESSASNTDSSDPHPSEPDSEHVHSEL
From the text: (§1) Prenylquinones like phylloquinone (vitamin K1), ubiquinone and plastoquinone function as co-enzymes during the conversion of glutamate into γ-carboxyl-glutamate (Gla), which is an essential step in the formation of the blood coagulation factors. The active form of vitamin K is the quinol (KH2), the oxidation of which provides the energy required for Gla formation. In this reaction KH2 is converted into vitamin K epoxide (KO), which is recycled in two steps by the action of an enzyme called KO-reductase.
(§2) In vitro systems were used to test either the γ-glutamylcarboxylase or KO-reductase. Salt-washed microsomes were prepared from the livers of normal cows and from normal and vitamin K-deficient rats of the Lewis strain.
(§3) Inhibition curves were prepared at a wide concentration range of prenylquinones (UQ-9, UQ-10, and PQ-9) using the cofactor vitamin K either in its quinol, its quinone, or in its epoxide form. From these curves the inhibitor concentrations required for 50% inhibition (I-50) were calculated (dotted lines in Fig. 1) for the various carboxylating enzyme systems from the cow as well as from rats. Incubations were performed under standard conditions, the inhibitors were added after solubilization in Triton X- 114. All points in Fig. 1 represent the means of duplicate experiments. 1-50 values were calculated as shown by the dotted lines.

Υ-glutamylcarboxylase [2] = molecular target: T2, Υ-glutamylcarboxylase (Bos taurus, UniProt Q07175); experiment: Inhibition of carboxylase activity in salt-washed liver microsomes, bovine system; type: biochemical; settings: cofactor KH2; mean of triplicate experiments with S.E.M.; read-out: I-50 (µm) in bovine system
T2 sequence (Q07175 2-758): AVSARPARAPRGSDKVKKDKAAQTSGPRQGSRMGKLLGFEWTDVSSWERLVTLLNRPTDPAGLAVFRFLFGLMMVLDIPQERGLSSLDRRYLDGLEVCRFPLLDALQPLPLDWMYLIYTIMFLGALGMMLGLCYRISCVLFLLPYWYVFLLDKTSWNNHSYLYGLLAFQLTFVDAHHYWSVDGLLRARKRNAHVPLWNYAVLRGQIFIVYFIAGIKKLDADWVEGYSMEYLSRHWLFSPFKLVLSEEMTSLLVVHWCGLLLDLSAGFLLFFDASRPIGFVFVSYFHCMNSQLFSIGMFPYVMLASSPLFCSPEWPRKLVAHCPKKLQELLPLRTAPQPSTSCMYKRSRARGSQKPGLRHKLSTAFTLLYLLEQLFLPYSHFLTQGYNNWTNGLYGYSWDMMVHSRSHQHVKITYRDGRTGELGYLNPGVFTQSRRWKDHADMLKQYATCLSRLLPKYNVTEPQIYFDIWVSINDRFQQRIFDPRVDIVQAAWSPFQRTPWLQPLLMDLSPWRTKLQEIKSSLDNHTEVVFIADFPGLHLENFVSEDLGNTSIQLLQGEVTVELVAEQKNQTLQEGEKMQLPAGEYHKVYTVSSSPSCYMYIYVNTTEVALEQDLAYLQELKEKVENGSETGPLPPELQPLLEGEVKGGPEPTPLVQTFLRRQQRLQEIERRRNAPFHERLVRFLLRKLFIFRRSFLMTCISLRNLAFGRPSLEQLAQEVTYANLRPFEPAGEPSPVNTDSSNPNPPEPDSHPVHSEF
From the text: as §1, §2, §3

Υ-glutamylcarboxylase [3] = experiment: as above; type: biochemical; settings: mean of triplicate experiments with S.E.M., read-out: I-50 (µm) in bovine system
From the text: as §1, §2, §3

Row | Structure (SMILES) | effective dose extrapolated to humans (plasma prothrombin) | IC50 (Υ-glutamylcarboxylase [1]) | IC50 (Υ-glutamylcarboxylase [2]) | IC50 (Υ-glutamylcarboxylase [3]; cofactor K) | IC50 (Υ-glutamylcarboxylase [3]; cofactor KO)
1 | COC1=C(OC)C(=O)C(CC=C(C)CCC=C(C)CCC=C(C)CCC=C(C)CCC=C(C)CCC=C(C)CCC=C(C)CCC=C(C)CCC=C(C)C)=C(C)C1=O [UQ-9, ubiquinone-9] | about 40 mg | 25 ± 6 µM | 105 ± 14 µM | 86 ± 12 µM | 72 ± 8 µM
2 | COC1=C(OC)C(=O)C(CC=C(C)CCC=C(C)CCC=C(C)CCC=C(C)CCC=C(C)CCC=C(C)CCC=C(C)CCC=C(C)CCC=C(C)CCC=C(C)C)=C(C)C1=O [UQ-10, ubiquinone-10] |  | 36 ± 7 µM | 110 ± 17 µM | 76 ± 5 µM | 91 ± 15 µM
3 | CC(C)=CCC/C(C)=C/CC/C(C)=C/CC/C(C)=C/CC/C(C)=C/CC/C(C)=C/CC/C(C)=C/CC/C(C)=C/CC/C(C)=C/CC1=CC(=O)C(C)=C(C)C1=O [PQ-9, plastoquinone] |  | 39 ± 10 µM | 85 ± 11 µM | 59 ± 4 µM | 41 ± 7 µM
